The NIST ThermoML archive (doi:10.1016/j.fluid.2006.11.004)
Numbers after ± are expanded uncertainties.

Experiment: xn = mol fraction of the nth substance listed
Details: 273.15 K, 111 kPa, Fluid (supercritical or subcritical phases), Flux Response Technology (based on capillary viscometry)

Compound	excess molar volume (x1 = 1) [m3/mol]	excess molar volume (x2 = 0) [m3/mol]	excess molar volume (x2 = 0.0001) [m3/mol]	excess molar volume (x2 = 0.113) [m3/mol]	excess molar volume (x2 = 0.236) [m3/mol]	excess molar volume (x2 = 0.362) [m3/mol]	excess molar volume (x2 = 0.48) [m3/mol]	excess molar volume (x2 = 0.482) [m3/mol]	excess molar volume (x2 = 0.56) [m3/mol]	excess molar volume (x2 = 0.561) [m3/mol]	excess molar volume (x2 = 0.6) [m3/mol]	excess molar volume (x2 = 0.715) [m3/mol]	excess molar volume (x2 = 0.833) [m3/mol]
O=C=O [carbon dioxide] + FC(F)(Cl)Cl	0 ± 1e-07												
FC(F)(Cl)Cl [dichlorodifluoromethane] + O=C=O		0 ± 1e-07	0 ± 1e-07	3.11e-05 ± 4.4e-06	4.65e-05 ± 6.5e-06	5.16e-05 ± 7.2e-06	5.54e-05 ± 7.8e-06	4.91e-05 ± 6.9e-06	5.6e-05 ± 7.8e-06	5.24e-05 ± 7.3e-06	5.03e-05 ± 7e-06	5.03e-05 ± 7e-06	3.21e-05 ± 4.5e-06
